By melting point is commonly meant the temperature of the solid-liquid transition.

Each structure is given as a SMILES string.

The values that follow come from a melting point compilation (Tetko et al.).

For the compound `Cc1c(C(=O)O)oc2c(Br)cccc12`, the melting point lay in the range of 204 to 206 °C.
As for `O=C(O)c1cccc2c1CCCN2`, the figure is 142 to 144 °C; as for `NCc1cc2ccccc2[nH]1`, 71 to 73 °C.
As for `O=C(O)c1cnsn1`, the figure is 167 to 169 °C; as for `O=C(O)C1CCCCN1Cc1ccc(F)cc1` (centres undefined), 218 to 220 °C.
As for `O=C(O)C1(c2cccc(C(F)(F)F)c2)CCOCC1`, the melting point lay within 147 to 149 °C.
As for `CC1CN(C(=O)OC(C)(C)C)CC(C)N1` (centres undefined), the figure is 64 to 66 °C.
As for `CC(=O)C(C#N)c1c(F)cccc1Cl` (centres undefined), the figure is 100 to 102 °C.
In the case of `COc1cccc(CNC(=O)n2ccnc2)c1`, the melting point is 98 to 100 °C.
The same measure for `Cc1cc(-c2csc(N)n2)c(F)cc1F`: 219 to 221 °C.
As for `O=C(NC(C(=O)O)c1ccccc1)c1cccs1` (centres undefined), the figure is 185 to 187 °C; as for `CS(=O)(=O)c1ccc(OCCN)cc1`, 63 to 65 °C; as for `Cc1cccc([N+](=O)[O-])c1F`, 19 to 21 °C.
As for `O=c1c([N+](=O)[O-])c(Cl)nc2ccccn12`, the figure is 212 to 214 °C.
In the case of `CCOC(=O)c1csc(-c2ccccn2)n1`, the melting point fell in the range of 67 to 69 °C.
`CC(C)N(C)S(=O)(=O)c1ccc(F)c(C(=O)O)c1` registered a melting point of 194 to 196 °C.
`CCOC(=O)c1c(N)sc(C(=O)OC(C)(C)C)c1C` displayed a melting point of 108 to 110 °C.
The same measure for `O=C(O)CCNC(=O)Nc1ccccc1`: 173 to 175 °C; for `N#Cc1ccc(-n2cncn2)nc1`: 203 to 205 °C; for `Clc1cc(Cl)nc(-c2ccccn2)n1`: 142 to 144 °C.
With `CCCNC(=O)NC(=O)CCl`, the melting point lay in the range of 119 to 121 °C.
The same measure for `Cc1ccc(NC(=O)C(C)C)cc1N`: 160 to 162 °C; for `N#Cc1ccc(C(=O)O)[nH]1`: 239 to 241 °C; for `Nc1nc(-c2ccncc2)cs1`: 172 to 174 °C.
As for `COc1cccc(Nc2nnc(S)s2)c1`, the figure is 208 to 210 °C; as for `CCCCc1nc2ccccc2[nH]1`, 149 to 151 °C; as for `Cc1cc(C)n(-c2ccc(S(N)(=O)=O)cc2)n1`, 243 to 245 °C.
`CCOC(=O)c1sc2cc(Cl)ccc2c1Cl` registered a melting point of 75 to 77 °C.
The same measure for `N=c1ccc2sc(N)nc2[nH]1`: 193 to 195 °C; for `O=S(=O)(c1ccc2c(c1)NCC2)N1CCCC1`: 181 to 183 °C.
The same measure for `OC(c1ccccc1)C1CCCCN1` (centres undefined): 136 to 138 °C.
As for `CC(C(=O)O)c1cccnc1` (centres undefined), the figure is 85 to 87 °C.
`CN1CCN(c2ccnc(C#N)c2)CC1`: the melting point fell in the range of 114 to 116 °C.
The same measure for `O=C(NCCO)c1ccccc1`: 60 to 62 °C; for `NC(CCCO)c1ccccc1` (centres undefined): 72 to 74 °C.
As for `CN(C)Cc1cccc(NC(=O)c2nonc2N)c1`, the figure is 142 to 144 °C; as for `Nc1nc(N)nc(CCl)n1`, 221 to 223 °C.
The same measure for `COc1c(C(=O)O)cc(Cl)cc1[N+](=O)[O-]`: 161 to 163 °C.
The compound `O=C(O)Cc1ccc(-n2cccn2)cc1` yielded a melting point of 130 to 132 °C.
The same measure for `COc1ccc(-c2n[nH]c(=O)c3ccccc23)cc1F`: 269 to 271 °C.
The same measure for `CC(Oc1ccc(Cl)cc1)C(=O)O` (centres undefined): 111 to 113 °C; for `O=C(O)C=Cc1cccc(OC2CCCCC2)c1`: 96 to 98 °C.
As for `CC(Br)c1cccc2ccccc12` (centres undefined), the figure is 36 to 38 °C.
As for `O=C(Nc1ccc(-n2cnc3ccccc32)nc1)OCC(F)(F)F`, the melting point lay in the range of 239 to 241 °C.
In the case of `Cc1n[nH]c(C(=O)O)c1Br`, the melting point is 271 to 273 °C.
The compound `O=C(O)c1noc(-c2ccccc2)n1` registered a melting point of 111 to 113 °C.
As for `CSCCC(NC(N)=O)C(=O)O` (centres undefined), the figure is 141 to 143 °C.
The same measure for `O=C(c1cccnc1)c1cccc(Cl)c1`: 47 to 49 °C; for `Cc1cc(C)c2cc(C(=O)O)[nH]c2c1`: 168 to 170 °C.
